What was measured:
Assay in all cases: Cell proliferation assay (MTS)
[1] = tested on: T47D; format: cell-based, human
Experimental: (§1) The sensitivity of a panel of human cancer cell lines to the effects of compounds was determined in a standard proliferation assay.
(§2) Cells were plated in 96 well plates at densities of 1000-6000 cells per well in RPMI media containing 10% FBS. After incubation at 37° C. for 16 hours, various concentrations of compound were added to the assay plates. After incubation for an additional 72 h, the viable cells were determined by the addition of MTS reagent (Promega #3582) to each well for 2 h. MTS is a tetrazolium salt that is bioreduced by metabolically active cells in the presence of an electron coupling reagent to formazan. The formazan product was then quantitated by absorbance at 490 nm, as an indicator of the relative number of live cells. In order to determine the GI50 (concentration at which growth of cells was inhibited by 50%) the relative number of cells present at the time of drug addition was determined by comparison with the MTS readout before the drug was added, and this value was subtracted from the 72 hr value of untreated cells as a measure of cell growth during the assay.

[2] = tested on: MCF7; format: cell-based, human
Experimental: as §1, §2

[3] = tested on: SW48; format: cell-based, human
Experimental: (§3) The sensitivity of a panel of human cancer cell lines to the effects of compounds was determined in a standard proliferation assay. Cell lines were sourced through the AstraZeneca Cell Bank.
as §2

[4] = tested on: LK2; format: cell-based, human
Experimental: as §3, §2

[5] = tested on: HUPT4; format: cell-based, human
Experimental: as §1, §2

[6] = tested on: RERFLCSQ1; format: cell-based, human
Experimental: as §1, §2

[7] = tested on: REH; format: cell-based, human
Experimental: as §1
(§4) Cells were plated in 96 well plates at densities of 1000-6000 cells per well in RPMI media containing 10% FBS. After incubation at 37° C. for 16 hours, various concentrations of compound were added to the assay plates. After incubation for an additional 72 h, the viable cells were determined by the addition of MTS reagent (Promega #3582) to each well for 2 h. […] The formazan product was then quantitated by absorbance at 490 nm, as an indicator of the relative number of live cells. In order to determine the GI50 (concentration at which growth of cells was inhibited by 50%) the relative number of cells present at the time of drug addition was determined by comparison with the MTS readout before the drug was added, and this value was subtracted from the 72 hr value of untreated cells as a measure of cell growth during the assay.

[8] = tested on: SNU216; format: cell-based, human
Experimental: as §1, §4

[9] = tested on: SKCO1; format: cell-based, human
Experimental: as §1, §4

[10] = tested on: RT11284; format: cell-based, human
Experimental: as §1, §2

[11] = tested on: N87; format: cell-based, human
Experimental: as §3, §4

[12] = tested on: JIMT1; format: cell-based, human
Experimental: as §1, §2

[13] = tested on: SKBR3; format: cell-based, human
Experimental: as §1, §2

[14] = tested on: H2085; format: cell-based, human
Experimental: as §1, §2

[15] = tested on: AZ521; format: cell-based, human
Experimental: as §1, §2

[16] = tested on: SW403; format: cell-based, human
Experimental: as §1, §2

[17] = tested on: HT1197; format: cell-based, human
Experimental: as §1, §2

[18] = tested on: H2291; format: cell-based, human
Experimental: as §3, §2

[19] = tested on: HS766T; format: cell-based, human
Experimental: as §3, §2

[20] = tested on: MOLM16; format: cell-based, human
Experimental: as §1, §2

[21] = tested on: OE19; format: cell-based, human
Experimental: as §1, §4

[22] = tested on: SNU449; format: cell-based, human
Experimental: as §1, §4

[23] = tested on: H1869; format: cell-based, human
Experimental: as §1, §2

[24] = tested on: PANC0403; format: cell-based, human
Experimental: as §1, §2

[25] = tested on: HT1376; format: cell-based, human
Experimental: as §3, §2

[26] = tested on: HUPT3; format: cell-based, human
Experimental: as §3, §2

[27] = tested on: CAPAN2; format: cell-based, human
Experimental: as §1, §4

[28] = tested on: BXPC3; format: cell-based, human
Experimental: as §1, §4

[29] = tested on: CAMA1; format: cell-based, human
Experimental: as §3, §2

[30] = tested on: H522; format: cell-based, human
Experimental: as §1, §4

[31] = tested on: SNU878; format: cell-based, human
Experimental: as §1, §2

[32] = tested on: HCC1806; format: cell-based, human
Experimental: as §1, §2

[33] = tested on: MDAMB231; format: cell-based, human
Experimental: as §1, §4

[34] = tested on: AMO1; format: cell-based, human
Experimental: as §3, §2

[35] = tested on: HEPG2; format: cell-based, human
Experimental: as §3, §2

[36] = tested on: JJN3; format: cell-based, human
Experimental: as §1, §2

[37] = tested on: K562; format: cell-based, human
Experimental: as §1, §2

[38] = tested on: MEC1; format: cell-based, human
Experimental: as §1, §2

[39] = tested on: SW900; format: cell-based, human
Experimental: as §3, §2

[40] = tested on: YAPC; format: cell-based, human
Experimental: as §3, §2

[41] = tested on: COLO320DM
Experimental: as §3, §2

[42] = tested on: HUH1
Experimental: as §1, §4

[43] = Homo sapiens, Breast, PIK3CA MUT
[44] = Homo sapiens, Blood/lymph, PIK3CA WT
[45] = Homo sapiens, Pancreas, PIK3CA WT

CCn1nc(C2CCN(C(=O)CCO)CC2)nc1-c1cnc(N)c(-c2nnc(C(C)(C)C)o2)n1 [Example 3, 1-(4-(5-(5-amino-6-(5-tert-butyl-1,3,4-oxadiazol-2-yl)pyrazin-2-yl)-1-ethyl-1H-1,2,4-triazol-3-yl)piperidin-1-yl)-3-hydroxypropan-1-one]
Category [1]: Sensitive (sensitive (GI50<=1.0 μM))
GI50 [1, 43]: 0.198 µM
Category [2]: Sensitive (sensitive (GI50<=1.0 μM))
GI50 [2, 43]: 0.309 µM
Category [3]: Sensitive (sensitive (GI50<=1.0 μM))
GI50 ([3]; Homo sapiens, Colon, PIK3CA MUT): 0.513 µM
Category [4]: Sensitive (sensitive (GI50<=1.0 μM))
GI50 ([4]; Homo sapiens, LK-2, Lung, PIK3CA WT): 0.588 µM
Category [5]: Sensitive (sensitive (GI50<=1.0 μM))
GI50 ([5]; Homo sapiens, HuP-T4, Pancreas, PIK3CA WT): 0.641 µM
GI50 ([6]; Homo sapiens, RERF-LC-Sq1, Lung, PIK3CA MUT): 0.771 µM
Category ([6]; RERFLCSQ1): Sensitive (sensitive (GI50<=1.0 μM))
Category [7]: Resistant (resistant (GI50>1.0 μM))
GI50 [7, 44]: 1.05 µM
Category [8]: Resistant (resistant (GI50>1.0 μM))
GI50 ([8]; Homo sapiens, SNU-216, Stomach, PIK3CA WT): 1.07 µM
Category [9]: Resistant (resistant (GI50>1.0 μM))
GI50 ([9]; Homo sapiens, SK-CO-1, Colon, PIK3CA WT): 1.13 µM
Category [10]: Resistant (resistant (GI50>1.0 μM))
GI50 ([10]; Homo sapiens, RT112/84, Bladder, PIK3CA WT): 1.17 µM
Category [11]: Resistant (resistant (GI50>1.0 μM))
GI50 ([11]; Homo sapiens, Stomach, PIK3CA WT): 1.3 µM
Category [12]: Resistant (resistant (GI50>1.0 μM))
GI50 ([12]; Homo sapiens, JIMT-1, Breast, PIK3CA MUT): 1.46 µM
Category [13]: Resistant (resistant (GI50>1.0 μM))
GI50 ([13]; Homo sapiens, SK-BR-3, Breast, PIK3CA WT): 1.59 µM
Category [14]: Resistant (resistant (GI50>1.0 μM))
GI50 ([14]; Homo sapiens, Lung, PIK3CA WT): 1.83 µM
Category [15]: Resistant (resistant (GI50>1.0 μM))
GI50 ([15]; Homo sapiens, AZ-521, Duodenum, PIK3CA WT): 2.06 µM
Category [16]: Resistant (resistant (GI50>1.0 μM))
GI50 ([16]; Homo sapiens, SW-403, Colon, PIK3CA MUT): 2.61 µM
Category [17]: Resistant (resistant (GI50>1.0 μM))
GI50 ([17]; Homo sapiens, Bladder, PIK3CA MUT): 2.8 µM
Category [18]: Resistant (resistant (GI50>1.0 μM))
GI50 ([18]; Homo sapiens, NCI-H2291, Lung, PIK3CA WT): 3.29 µM
Category [19]: Resistant (resistant (GI50>1.0 μM))
GI50 [19, 45]: 3.47 µM
Category [20]: Resistant (resistant (GI50>1.0 μM))
GI50 [20, 44]: 4.6 µM
Category [21]: Resistant (resistant (GI50>1.0 μM))
GI50 ([21]; Homo sapiens, Esophagus, PIK3CA WT): 5.13 µM
Category [22]: Resistant (resistant (GI50>1.0 μM))
GI50 ([22]; Homo sapiens, SNU-449, Liver, PIK3CA WT): 5.41 µM
Category [23]: Resistant (resistant (GI50>1.0 μM))
GI50 ([23]; Homo sapiens, Lung, PIK3CA WT): 6.04 µM
Category [24]: Resistant (resistant (GI50>1.0 μM))
GI50 ([24]; Homo sapiens, Panc 04.03, Pancreas, PIK3CA WT): 6.47 µM
Category [25]: Resistant (resistant (GI50>1.0 μM))
GI50 ([25]; Homo sapiens, HT-1376, Bladder, PIK3CA WT): 8.2 µM
Category [26]: Resistant (resistant (GI50>1.0 μM))
GI50 ([26]; Homo sapiens, HuP-T3, Pancreas, PIK3CA WT): 13.4 µM
Category [27]: Resistant (resistant (GI50>1.0 μM))
GI50 ([27]; Homo sapiens, Capan-2, Pancreas, PIK3CA WT): 13.4 µM
Category [28]: Resistant (resistant (GI50>1.0 μM))
GI50 ([28]; Homo sapiens, BXPC-3, Pancreas, PIK3CA WT): 14.1 µM
Category [29]: Resistant (resistant (GI50>1.0 μM))
GI50 ([29]; Homo sapiens, CAMA-1, Breast, PIK3CA WT): 15.5 µM
Category [30]: Resistant (resistant (GI50>1.0 μM))
GI50 ([30]; Homo sapiens, NCI-H522, Lung, PIK3CA WT): 15.6 µM
Category [31]: Resistant (resistant (GI50>1.0 μM))
GI50 ([31]; Homo sapiens, Liver, PIK3CA WT): 16.1 µM
Category [32]: Resistant (resistant (GI50>1.0 μM))
GI50 ([32]; Homo sapiens, Breast, PIK3CA WT): 16.7 µM
Category [33]: Resistant (resistant (GI50>1.0 μM))
GI50 ([33]; Homo sapiens, MDA-MB-231, Breast, PIK3CA WT): 23.6 µM
Category [34]: Resistant (resistant (GI50>1.0 μM))
GI50 [34, 44]: 26.9 µM
Category [35]: Resistant (resistant (GI50>1.0 μM))
GI50 ([35]; Homo sapiens, Liver, PIK3CA WT): 30 µM
Category [36]: Resistant (resistant (GI50>1.0 μM))
GI50 ([36]; Homo sapiens, JJN-3, Blood/lymph, PIK3CA WT): 30 µM
Category [37]: Resistant (resistant (GI50>1.0 μM))
GI50 [37, 44]: 30 µM
Category [38]: Resistant (resistant (GI50>1.0 μM))
GI50 [38, 44]: 30 µM
Category [39]: Resistant (resistant (GI50>1.0 μM))
GI50 ([39]; Homo sapiens, Lung, PIK3CA WT): 30 µM
Category [40]: Resistant (resistant (GI50>1.0 μM))
GI50 [40, 45]: 30 µM
Category ([41]; COLO320DM): Resistant (resistant (GI50>1.0 μM))
GI50 ([41]; Homo sapiens, COLO 320DM): 2.51 µM
Category ([42]; HUH1): Resistant (resistant (GI50>1.0 μM))
GI50 ([42]; Homo sapiens, HuH-1): 22.3 µM
